In PubChem BioAssay (NCI):
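Five compound concentrations were applied to cells in 96-well plates for 48 hours; endpoints were derived by simple linear interpolation of the resulting dose-response curve. Definition used: TGI = concentration required for complete inhibition of growth.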

Assays:
Assay in all cases: DTP human tumour cell line panel, 48 h
[1] = test system: HCC-2998 colon
[2] = test system: OVCAR-5 ovarian
[3] = test system: CCRF-CEM leukemia
[4] = test system: NCI-H460 lung
[5] = test system: U251 CNS
[6] = test system: HOP-92 NSCLC
[7] = test system: MCF7 breast
[8] = test system: MDA-N
[9] = test system: RPMI-8226 leukemia
[10] = test system: NCI-H23 lung
[11] = test system: HCT-116 colon
[12] = test system: A498 renal
[13] = test system: KM12 colon
[14] = test system: MDA-MB-231 breast
[15] = test system: EKVX NSCLC
[16] = test system: SN12C renal
[17] = test system: MALME-3M melanoma
[18] = test system: TK-10 renal
[19] = test system: SK-MEL-5 melanoma
[20] = test system: SNB-75 CNS
[21] = test system: HS 578T breast
[22] = test system: SK-OV-3 ovarian
[23] = test system: K-562 leukemia
[24] = test system: OVCAR-8 ovarian
[25] = test system: DU-145 prostate
[26] = test system: NCI-H522 lung
[27] = test system: SNB-19 CNS
[28] = test system: SK-MEL-2 melanoma
[29] = test system: T-47D breast
[30] = test system: HT29 colon
[31] = test system: NCI/ADR-RES ovarian
[32] = test system: ACHN renal
[33] = test system: PC-3 prostate
[34] = test system: SR leukemia
[35] = test system: SK-MEL-28 melanoma
[36] = test system: A549 NSCLC
[37] = test system: RXF 393 renal
[38] = test system: UO-31 renal
[39] = test system: BT-549 breast
[40] = test system: M14 melanoma
[41] = test system: UACC-257 melanoma
[42] = test system: NCI-H226 lung
[43] = test system: OVCAR-4 ovarian
[44] = test system: CAKI-1 renal
[45] = test system: SF-268 CNS
[46] = test system: SF-539 CNS
[47] = test system: OVCAR-3 ovarian
[48] = test system: 786-0 renal
[49] = test system: SW-620 colon
[50] = test system: HOP-62 NSCLC
[51] = test system: IGROV1 ovarian
[52] = test system: COLO 205 colon
[53] = test system: LOX IMVI melanoma
[54] = test system: HL-60(TB) leukemia
[55] = test system: MOLT-4 leukemia
[56] = test system: HCT-15 colon
[57] = test system: SF-295 CNS
[58] = test system: MDA-MB-435
[59] = test system: UACC-62 melanoma

CC(C)c1cc2c(cc1S(=O)(=O)O)[C@@]1(C)CCC[C@@](C)(C(=O)O)C1CC2 (stereo partly drawn)
TGI [1]: > 100 µM
TGI [2]: > 100 µM
TGI [3]: > 100 µM
TGI [4]: > 100 µM
TGI [5]: > 100 µM
TGI [6]: > 100 µM
TGI [7]: > 100 µM
TGI [8]: > 100 µM
TGI [9]: > 100 µM
TGI [10]: > 100 µM
TGI [11]: > 100 µM
TGI [12]: > 100 µM
TGI [13]: > 100 µM
TGI [14]: > 100 µM
TGI [15]: > 100 µM
TGI [16]: > 100 µM
TGI [17]: > 100 µM
TGI [18]: > 100 µM
TGI [19]: > 100 µM
TGI [20]: > 100 µM
TGI [21]: > 100 µM
TGI [22]: > 100 µM
TGI [23]: > 100 µM
TGI [24]: > 100 µM
TGI [25]: > 100 µM
TGI [26]: > 100 µM
TGI [27]: > 100 µM
TGI [28]: > 100 µM
TGI [29]: > 100 µM
TGI [30]: > 100 µM
TGI [31]: > 100 µM
TGI [32]: > 100 µM
TGI [33]: > 100 µM
TGI [34]: > 100 µM
TGI [35]: > 100 µM
TGI [36]: > 100 µM
TGI [37]: > 100 µM
TGI [38]: > 100 µM
TGI [39]: > 100 µM
TGI [40]: > 100 µM
TGI [41]: > 100 µM
TGI [42]: > 100 µM
TGI [43]: > 100 µM
TGI [44]: > 100 µM
TGI [45]: > 100 µM
TGI [46]: > 100 µM
TGI [47]: > 100 µM
TGI [48]: > 100 µM
TGI [49]: > 100 µM
TGI [50]: > 100 µM
TGI [51]: > 100 µM
TGI [52]: > 100 µM
TGI [53]: > 100 µM
TGI [54]: > 100 µM
TGI [55]: > 100 µM
TGI [56]: > 100 µM
TGI [57]: > 100 µM
TGI [58]: > 100 µM
TGI [59]: > 100 µM

COc1ccc(C(=C2C=CC=C2)c2ccc(OC)cc2)cc1
TGI [1]: 42.6 µM
TGI [2]: 88.5 µM
TGI [3]: 53 µM
TGI [4]: 86.7 µM
TGI [5]: 71.6 µM
TGI [6]: > 100 µM
TGI [7]: 37.6 µM
TGI [8]: > 100 µM
TGI [9]: 28 µM
TGI [10]: > 100 µM
TGI [11]: 84.8 µM
TGI [13]: > 100 µM
TGI [14]: 34.8 µM
TGI [15]: > 100 µM
TGI [16]: 81.3 µM
TGI [17]: 81.8 µM
TGI [18]: > 100 µM
TGI [19]: 95.3 µM
TGI [20]: > 100 µM
TGI [21]: 94.4 µM
TGI [22]: > 100 µM
TGI [23]: > 100 µM
TGI [24]: > 100 µM
TGI [25]: > 100 µM
TGI [26]: 40.4 µM
TGI [27]: 74.8 µM
TGI [28]: 68.5 µM
TGI [29]: 57.7 µM
TGI [30]: 66 µM
TGI [31]: > 100 µM
TGI [32]: > 100 µM
TGI [33]: > 100 µM
TGI [34]: 86.7 µM
TGI [35]: > 100 µM
TGI [36]: > 100 µM
TGI [37]: 61.7 µM
TGI [38]: > 100 µM
TGI [39]: > 100 µM
TGI [40]: > 100 µM
TGI [41]: > 100 µM
TGI [42]: > 100 µM
TGI [43]: > 100 µM
TGI [44]: 56.3 µM
TGI [45]: > 100 µM
TGI [46]: 29.6 µM
TGI [47]: > 100 µM
TGI [49]: > 100 µM
TGI [50]: > 100 µM
TGI [51]: > 100 µM
TGI [52]: 43.5 µM
TGI [53]: 33.7 µM
TGI [54]: > 100 µM
TGI [55]: 40.3 µM
TGI [56]: 74 µM
TGI [57]: 54.4 µM
TGI [58]: > 100 µM
TGI [59]: 98.1 µM

COc1nncc2[nH]c(-c3ccccc3)cc12
TGI [1]: > 100 µM
TGI [2]: > 100 µM
TGI [3]: > 100 µM
TGI [4]: > 100 µM
TGI [5]: > 100 µM
TGI [6]: > 100 µM
TGI [7]: > 100 µM
TGI [8]: > 100 µM
TGI [9]: > 100 µM
TGI [10]: > 100 µM
TGI [11]: > 100 µM
TGI [12]: > 100 µM
TGI [13]: > 100 µM
TGI [14]: > 100 µM
TGI [15]: > 100 µM
TGI [16]: > 100 µM
TGI [17]: > 100 µM
TGI [18]: > 100 µM
TGI [19]: > 100 µM
TGI [20]: > 100 µM
TGI [21]: > 100 µM
TGI [22]: > 100 µM
TGI [23]: > 100 µM
TGI [24]: > 100 µM
TGI [25]: > 100 µM
TGI [27]: > 100 µM
TGI [28]: > 100 µM
TGI [29]: > 100 µM
TGI [30]: > 100 µM
TGI [31]: > 100 µM
TGI [32]: > 100 µM
TGI [33]: > 100 µM
TGI [34]: > 100 µM
TGI [36]: > 100 µM
TGI [37]: > 100 µM
TGI [38]: > 100 µM
TGI [39]: > 100 µM
TGI [40]: > 100 µM
TGI [41]: > 100 µM
TGI [42]: > 100 µM
TGI [43]: > 100 µM
TGI [44]: > 100 µM
TGI [45]: > 100 µM
TGI [46]: > 100 µM
TGI [47]: > 100 µM
TGI [48]: > 100 µM
TGI [49]: > 100 µM
TGI [50]: > 100 µM
TGI [51]: > 100 µM
TGI [52]: > 100 µM
TGI [53]: > 100 µM
TGI [54]: > 100 µM
TGI [55]: 18.1 µM
TGI [56]: > 100 µM
TGI [57]: > 100 µM
TGI [58]: > 100 µM
TGI [59]: > 100 µM
